Where two headings read alike, the source gives them in different places. Where a SMILES comes first, the peptide text is derived from it.
Columns and labels:
[1] = molecular target: T1, CathepsinG, from human neutrophils (Homo sapiens, UniProt P08311); experiment: Enzymatic assay, cathepsin G
T1 sequence (P08311 21-244): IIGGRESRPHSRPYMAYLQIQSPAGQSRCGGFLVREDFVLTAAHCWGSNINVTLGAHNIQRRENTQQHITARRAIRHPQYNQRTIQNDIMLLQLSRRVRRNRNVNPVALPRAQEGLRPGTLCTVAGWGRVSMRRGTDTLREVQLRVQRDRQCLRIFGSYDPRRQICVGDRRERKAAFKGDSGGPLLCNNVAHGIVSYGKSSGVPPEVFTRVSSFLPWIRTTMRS

[2] = molecular target: Urokinase from human urine (Homo sapiens, UniProt P00749); experiment: Enzymatic assay, urokinase
[3] = tested on: HELA cells (Acc57); experiment: Cytotoxicity assay (MTT reduction), HELA cells; type: cell-based; settings: Hela cells
Outline: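 HeLa cells were grown for 24 h, then exposed to peptides at 12.5, 25 and 50 μM in triplicate for 48 h at 37 °C. MTT reduction was read at 595 nm and growth % calculated relative to time-zero wells. LC50 interpolated by linear trend at −50% growth, GI50 at 50%.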

[4] = molecular target: Trypsin, from human pancreas (Homo sapiens, UniProt P07477); experiment: Enzymatic assay, trypsin; settings: at 100 μM
[5] = molecular target: Thrombin, from Human Plasma (Homo sapiens, UniProt P00734); experiment: Enzymatic assay, thrombin
[6] = molecular target: Chymotrypsin, from human pancreas (Homo sapiens, UniProt P17538); experiment: Enzymatic assay, chymotrypsin; settings: at 100 μM
Chymotrypsin, from human pancreas, sequence (P17538 19-263): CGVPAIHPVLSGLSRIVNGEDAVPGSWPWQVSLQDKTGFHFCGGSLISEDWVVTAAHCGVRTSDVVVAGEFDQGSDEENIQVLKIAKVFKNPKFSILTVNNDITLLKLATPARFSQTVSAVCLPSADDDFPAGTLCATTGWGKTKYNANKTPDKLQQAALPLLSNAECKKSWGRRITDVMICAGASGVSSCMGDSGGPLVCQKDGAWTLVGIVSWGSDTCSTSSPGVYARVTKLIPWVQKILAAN

[7] = molecular target: T2, Elastase from human neutrophils (Homo sapiens, UniProt P08246); experiment: Enzymatic assay, elastase
T2 sequence (P08246 30-267): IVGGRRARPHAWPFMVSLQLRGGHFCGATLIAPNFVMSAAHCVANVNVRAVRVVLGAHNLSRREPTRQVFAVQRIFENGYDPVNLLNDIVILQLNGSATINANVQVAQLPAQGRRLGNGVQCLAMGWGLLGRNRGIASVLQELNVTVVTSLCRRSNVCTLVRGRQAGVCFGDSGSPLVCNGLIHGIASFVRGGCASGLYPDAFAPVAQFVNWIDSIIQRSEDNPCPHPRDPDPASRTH

[8] = tested on: human red blood cells (hRBC); experiment: Hemolysis
Protocol: The peptides were tested for their hemolytic activity against human red blood cells (hRBC). Fresh hRBC were washed three times with phosphate buffered saline (PBS) by centrifugation for 10 min at 2000×g. Peptides at a concentration of 100 μM were incubated with 20% v/v hRBC for 1 hour at 37° C. The final erythrocyte concentration was approximately 0.9×10^9 cells per ml. A value of 0% and, respectively, 100% cell lysis was determined by incubation of the hRBC in the presence of PBS alone and, respectively, 0.1% Triton X-100 in H2O. […] The 100% lysis value (OD540H20) gave an OD540 of approximately 1.3-1.8. Percent hemolysis was calculated as follows: (OD540peptide/OD540H20)×100%.

[9] = molecular target: T3, Chymase, from human skin (Homo sapiens, UniProt P23946); experiment: Enzymatic assay, chymase
T3 sequence (P23946 22-247): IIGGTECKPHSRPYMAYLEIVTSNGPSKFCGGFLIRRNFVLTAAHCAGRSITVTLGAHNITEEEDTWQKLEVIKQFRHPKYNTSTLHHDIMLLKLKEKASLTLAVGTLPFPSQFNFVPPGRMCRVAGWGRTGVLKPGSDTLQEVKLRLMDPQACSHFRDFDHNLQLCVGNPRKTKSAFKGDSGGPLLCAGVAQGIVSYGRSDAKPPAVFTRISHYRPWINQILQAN

[10] = molecular target: Coagulation Factor Xa, from uman plasma (Homo sapiens, UniProt P00742); experiment: Enzymatic assay, coagulation factor Xa
Coagulation Factor Xa, from uman plasma, sequence (P00742 235-488 limits assumed): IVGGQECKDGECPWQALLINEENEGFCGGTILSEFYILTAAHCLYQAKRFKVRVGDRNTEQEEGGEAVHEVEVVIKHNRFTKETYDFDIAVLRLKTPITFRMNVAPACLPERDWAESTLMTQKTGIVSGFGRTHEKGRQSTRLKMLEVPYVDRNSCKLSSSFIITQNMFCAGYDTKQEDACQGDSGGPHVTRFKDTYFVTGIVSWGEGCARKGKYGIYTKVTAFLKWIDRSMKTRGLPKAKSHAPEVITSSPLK
Coagulation Factor Xa, from uman plasma, sequence (P00742 41-179 limits assumed): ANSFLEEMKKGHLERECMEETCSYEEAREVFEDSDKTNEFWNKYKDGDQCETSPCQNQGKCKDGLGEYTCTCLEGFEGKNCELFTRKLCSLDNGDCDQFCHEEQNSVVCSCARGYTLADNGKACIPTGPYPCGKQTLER

[11] = tested on: Tryptase, from human lung; experiment: Enzymatic assay, tryptase; settings: at 100 μM

SMILES	IC50 ([1]; Cathepsin G IC50)	Urokinase at 100 μM % [2]	Cytotoxicity LC50/GI50 Hela cells [3]	Trypsin at 100 μM % [4]	Thrombin at 100 μM % [5]	Chymotrypsin at 100 μM % [6]	IC50 ([7]; Elastase IC50)	Hemolysis at 100 μM % [8]	Chymase at 100 μM % [9]	FXa at 100 μM % [10]	Tryptase at 100 μM % [11]	IC50 ([1]; read-out: Cathepsin G IC50)	IC50 ([7]; read-out: Elastase IC50)
CC[C@H](C)[C@@H]1NC(=O)[C@@H]2CCCN2C(=O)[C@@H]2CCCN2C(=O)[C@H](CC(=O)O)NC(=O)[C@H](CO)NC(=O)[C@H](CCCCN)NC(=O)[C@H]([C@@H](C)O)NC(=O)[C@@H]2CSSC[C@H](NC1=O)C(=O)N[C@@H](Cc1ccc(O)cc1)C(=O)N1CCC[C@@H]1C(=O)N1CCC[C@H]1C(=O)N[C@@H](C1CCCCC1)C(=O)N2 [Ex. 40] (HELM PEPTIDE1{[O=C([C@@H](N[*:1])C1CCCCC1)[*:2]].C.T.K.S.D.P.P.I.C.Y.[dP].P}$PEPTIDE1,PEPTIDE1,2:R3-10:R3|PEPTIDE1,PEPTIDE1,1:R1-13:R2$$$V2.0)	0.025 µM	10%	97 µM	94%	1%	19%	> 44.9 µM	0.1%	8%	3%	33%	–	–
CCCC[C@@H]1NC(=O)[C@H]([C@@H](C)O)NC(=O)[C@@H]2CSSC[C@H](NC(=O)[C@H]([C@@H](C)CC)NC(=O)[C@@H]3CCCN3C(=O)[C@@H]3CCCN3C(=O)[C@H](CC(=O)O)NC(=O)[C@H](CO)NC1=O)C(=O)N[C@@H](CCCNC(=N)N)C(=O)N1CCC[C@@H]1C(=O)N1CCC[C@H]1C(=O)N[C@@H]([C@@H](C)CC)C(=O)N2 [Ex. 59] (HELM PEPTIDE1{I.C.T.[Nle].S.D.P.P.I.C.R.[dP].P}$PEPTIDE1,PEPTIDE1,2:R3-10:R3|PEPTIDE1,PEPTIDE1,1:R1-13:R2$$$V2.0)	–	5.7%	8 µM	84%	–	0%	–	0%	98.8%	–	3.8%	0.055 µM	> 100 µM
CC[C@H](C)[C@@H]1NC(=O)[C@@H]2CCCN2C(=O)[C@@H]2CCCN2C(=O)[C@H](CC(=O)O)NC(=O)[C@H](CO)NC(=O)[C@H](CCCCN)NC(=O)[C@H]([C@@H](C)O)NC(=O)[C@@H]2CSSC[C@H](NC1=O)C(=O)N[C@@H](Cc1ccc(O)cc1)C(=O)N1CCC[C@@H]1C(=O)N1CCC[C@H]1C(=O)N[C@@H](CC1CCCCC1)C(=O)N2 [Ex. 36] (HELM PEPTIDE1{[Cha].C.T.K.S.D.P.P.I.C.Y.[dP].P}$PEPTIDE1,PEPTIDE1,2:R3-10:R3|PEPTIDE1,PEPTIDE1,1:R1-13:R2$$$V2.0)	0.041 µM	0%	83 µM	–	–	–	–	0%	–	–	73.3%	–	–
CC[C@H](C)[C@@H]1NC(=O)[C@@H]2CCCN2C(=O)[C@H]2CCCN2C(=O)[C@H](CCCNC(=N)N)NC(=O)[C@@H]2CSSC[C@H](NC1=O)C(=O)N[C@@H]([C@@H](C)O)C(=O)N[C@@H](CCCCN)C(=O)N[C@@H](CO)C(=O)N[C@@H](CC(=O)O)C(=O)N1CCC[C@H]1C(=O)N1CCC[C@H]1C(=O)N[C@@H](CC1CCCCC1)C(=O)N2 [Ex. 20] (HELM PEPTIDE1{I.C.T.K.S.D.P.P.[Cha].C.R.[dP].P}$PEPTIDE1,PEPTIDE1,2:R3-10:R3|PEPTIDE1,PEPTIDE1,1:R1-13:R2$$$V2.0)	0.048 µM	6.7%	100 µM	97.0%	28%	0%	> 100 µM	0%	44.1%	25%	–	–	–
CC[C@H](C)[C@@H]1NC(=O)[C@@H]2CCCN2C(=O)[C@@H]2CCCN2C(=O)[C@H](CC(=O)O)NC(=O)[C@H](CO)NC(=O)[C@H](CCCCN)NC(=O)[C@H]([C@@H](C)O)NC(=O)[C@@H]2CSSC[C@H](NC1=O)C(=O)N[C@@H](CC(N)=O)C(=O)N1CCC[C@@H]1C(=O)N1CCC[C@H]1C(=O)N[C@@H](C1CCCCC1)C(=O)N2 [Ex. 37] (HELM PEPTIDE1{[O=C([C@@H](N[*:1])C1CCCCC1)[*:2]].C.T.K.S.D.P.P.I.C.N.[dP].P}$PEPTIDE1,PEPTIDE1,2:R3-10:R3|PEPTIDE1,PEPTIDE1,1:R1-13:R2$$$V2.0)	0.035 µM	5%	92 µM	–	–	–	–	0.1%	–	–	56%	–	–
C[C@@H](O)[C@@H]1NC(=O)[C@@H]2CSSC[C@H](NC(=O)[C@H](CC3CCCCC3)NC(=O)[C@@H]3CCCN3C(=O)[C@@H]3CCCN3C(=O)[C@H](CC(=O)O)NC(=O)[C@H](CO)NC(=O)[C@H](CCCCN)NC1=O)C(=O)N[C@@H](CO)C(=O)N1CCC[C@@H]1C(=O)N1CCC[C@H]1C(=O)N[C@@H](Cc1ccccc1)C(=O)N2 [Ex. 16] (HELM PEPTIDE1{F.C.T.K.S.D.P.P.[Cha].C.S.[dP].P}$PEPTIDE1,PEPTIDE1,2:R3-10:R3|PEPTIDE1,PEPTIDE1,1:R1-13:R2$$$V2.0)	0.066 µM	3.2%	94 µM	90.0%	–	17.9%	> 100 µM	0.1%	12.9%	–	–	–	–
CC[C@H](C)[C@@H]1NC(=O)[C@@H]2CCCN2C(=O)[C@H]2CCCN2C(=O)[C@H](CCCNC(=N)N)NC(=O)[C@@H]2CSSC[C@H](NC1=O)C(=O)N[C@@H]([C@@H](C)O)C(=O)N[C@@H](CCCCN)C(=O)N[C@@H](CO)C(=O)N[C@@H](CC(=O)O)C(=O)N1CCC[C@H]1C(=O)N1CCC[C@H]1C(=O)N[C@@H](CC1CCCCC1)C(=O)N2 [Ex. 58] (HELM PEPTIDE1{I.C.T.K.S.D.P.P.[Cha].C.R.[dP].P}$PEPTIDE1,PEPTIDE1,2:R3-10:R3|PEPTIDE1,PEPTIDE1,1:R1-13:R2$$$V2.0)	0.0475 µM	6.7%	100 µM	97%	28%	0%	–	0%	44.1%	25%	–	–	> 100 µM
CCCC[C@@H]1NC(=O)[C@@H]2CCCN2C(=O)[C@H]2CCCN2C(=O)[C@H]([C@@H](C)O)NC(=O)[C@@H]2CSSC[C@H](NC1=O)C(=O)N[C@@H]([C@@H](C)O)C(=O)N[C@@H](CCCCN)C(=O)N[C@@H](CO)C(=O)N[C@@H](CC(=O)O)C(=O)N1CCC[C@H]1C(=O)N1CCC[C@H]1C(=O)N[C@@H]([C@@H](C)CC)C(=O)N2 [Ex. 42] (HELM PEPTIDE1{[Nle].C.T.K.S.D.P.P.I.C.T.[dP].P}$PEPTIDE1,PEPTIDE1,2:R3-10:R3|PEPTIDE1,PEPTIDE1,1:R1-13:R2$$$V2.0)	0.046 µM	7%	87 µM	–	–	–	–	0%	–	–	0%	–	–

Source: US8658604B2, “Template-fixed beta-hairpin peptidomimetics with protease inhibitory activity” (Polyphor Ltd, priority 2005, dated 2014)
